According to ChEMBL document CHEMBL3885881, “DrugMatrix”:

Species on record: Rattus norvegicus
Assay: DrugMatrix - Regimen: Daily Repeat
Type: toxicity, organism-based, Sprague-Dawley
Set-up: regimen Daily Repeat, gender Male, age 6-8 weeks
Conditions: in vivo, po, route oral GAVAGE, vehicle .5 % CMC; for ABSOLUTE BASOPHIL / ABSOLUTE EOSINOPHIL / ABSOLUTE LYMPHOCYTE / ABSOLUTE MONOCYTE / ABSOLUTE SEGMENTED NEUTROPHIL / BASOPHIL / EOSINOPHIL / ERYTHROCYTE COUNT / HEMATOCRIT / HEMOGLOBIN / LEUKOCYTE COUNT / LYMPHOCYTE / MEAN CORPUSCULAR HEMOGLOBIN / MEAN CORPUSCULAR HEMOGLOBIN CONCENTRATION / MEAN CORPUSCULAR VOLUME / MONOCYTE / NEUTROPHIL / NUCLEATED RED BLOOD CELLS / PLATELET COUNT: tissue Blood; for ALANINE AMINOTRANSFERASE / ALBUMIN / ALKALINE PHOSPHATASE / ASPARTATE AMINOTRANSFERASE / BLOOD UREA NITROGEN / CARBON DIOXIDE / CHLORIDE / CHOLESTEROL / CREATINE PHOSPHOKINASE / CREATININE / GLUCOSE / LACTATE DEHYDROGENASE / LIPASE / PHOSPHORUS / POTASSIUM / SODIUM / TOTAL BILIRUBIN / TOTAL PROTEIN / URIC ACID: tissue Plasma
[1] = 0 mg/kg, 72 h, dose level Control, time 3 day
[2] = 0 mg/kg, 120 h, dose level Control, time 5 day
[3] = 50 mg/kg, 72 h, dose level Low, time 3 day

SMILES: CC(=O)O[C@]1(C(C)=O)CC[C@H]2[C@@H]3C=C(Cl)C4=CC(=O)[C@@H]5C[C@@H]5[C@]4(C)[C@H]3CC[C@@]21C [CYPROTERONE ACETATE]
- ABSOLUTE BASOPHIL [1]: 0 CELLS/uL
- ABSOLUTE EOSINOPHIL [1]: 0 CELLS/uL
- ABSOLUTE LYMPHOCYTE [1]: 12191.17 CELLS/uL
- ABSOLUTE MONOCYTE [1]: 183.17 CELLS/uL
- ABSOLUTE SEGMENTED NEUTROPHIL [1]: 1192.33 CELLS/uL
- BASOPHIL [1]: 0%
- EOSINOPHIL [1]: 0%
- ERYTHROCYTE COUNT [1]: 5.51 x10E6/uL
- HEMATOCRIT [1]: 35.45%
- HEMOGLOBIN [1]: 13.82 G/DL
- LEUKOCYTE COUNT [1]: 13.57 x10E3/uL
- LYMPHOCYTE [1]: 89.83%
- MEAN CORPUSCULAR HEMOGLOBIN [1]: 25.1 pg
- MEAN CORPUSCULAR HEMOGLOBIN CONCENTRATION [1]: 38.98 G/DL
- MEAN CORPUSCULAR VOLUME [1]: 64.42 fL
- MONOCYTE [1]: 1.33%
- NEUTROPHIL [1]: 8.83%
- NUCLEATED RED BLOOD CELLS [1]: 0 /100WBC
- PLATELET COUNT [1]: 1118.17 x10E3/uL
- ALANINE AMINOTRANSFERASE [1]: 55 u/L
- ALBUMIN [1]: 4.15 G/DL
- ALKALINE PHOSPHATASE [1]: 449.5 u/L
- ASPARTATE AMINOTRANSFERASE [1]: 112.83 u/L
- BLOOD UREA NITROGEN [1]: 17.33 mg/dL
- CARBON DIOXIDE [1]: 29.5 mmol/L
- CHLORIDE [1]: 101 MEQ/L
- CHOLESTEROL [1]: 70 mg/dL
- CREATINE PHOSPHOKINASE [1]: 1325.83 u/L
- CREATININE [1]: 0.18 mg/dL
- GLUCOSE [1]: 171.5 mg/dL
- LACTATE DEHYDROGENASE [1]: 386 u/L
- LIPASE [1]: 10 u/L
- PHOSPHORUS [1]: 11.57 mg/dL
- POTASSIUM [1]: 6.21 MEQ/L
- SODIUM [1]: 141.65 MEQ/L
- TOTAL BILIRUBIN [1]: 0.15 mg/dL
- TOTAL PROTEIN [1]: 5.75 G/DL
- URIC ACID [1]: 1.28 mg/dL
- ABSOLUTE BASOPHIL [2]: 0 CELLS/uL
- ABSOLUTE EOSINOPHIL [2]: 138.17 CELLS/uL
- ABSOLUTE LYMPHOCYTE [2]: 13283.17 CELLS/uL
- ABSOLUTE MONOCYTE [2]: 303.83 CELLS/uL
- ABSOLUTE SEGMENTED NEUTROPHIL [2]: 1308.17 CELLS/uL
- BASOPHIL [2]: 0%
- EOSINOPHIL [2]: 1%
- ERYTHROCYTE COUNT [2]: 5.32 x10E6/uL
- HEMATOCRIT [2]: 33.8%
- HEMOGLOBIN [2]: 13.63 G/DL
- LEUKOCYTE COUNT [2]: 15.03 x10E3/uL
- LYMPHOCYTE [2]: 88.33%
- MEAN CORPUSCULAR HEMOGLOBIN [2]: 25.68 pg
- MEAN CORPUSCULAR HEMOGLOBIN CONCENTRATION [2]: 40.35 G/DL
- MEAN CORPUSCULAR VOLUME [2]: 63.67 fL
- MONOCYTE [2]: 1.83%
- NEUTROPHIL [2]: 8.83%
- NUCLEATED RED BLOOD CELLS [2]: 0 /100WBC
- PLATELET COUNT [2]: 1097.5 x10E3/uL
- ALANINE AMINOTRANSFERASE [2]: 54.5 u/L
- ALBUMIN [2]: 4.27 G/DL
- ALKALINE PHOSPHATASE [2]: 337 u/L
- ASPARTATE AMINOTRANSFERASE [2]: 94.67 u/L
- BLOOD UREA NITROGEN [2]: 17 mg/dL
- CARBON DIOXIDE [2]: 28.33 mmol/L
- CHLORIDE [2]: 101.5 MEQ/L
- CHOLESTEROL [2]: 71.33 mg/dL
- CREATINE PHOSPHOKINASE [2]: 628.17 u/L
- CREATININE [2]: 0.19 mg/dL
- GLUCOSE [2]: 177.83 mg/dL
- LACTATE DEHYDROGENASE [2]: 500.5 u/L
- LIPASE [2]: 9.5 u/L
- PHOSPHORUS [2]: 12.3 mg/dL
- POTASSIUM [2]: 5.63 MEQ/L
- SODIUM [2]: 143.03 MEQ/L
- TOTAL BILIRUBIN [2]: 0.2 mg/dL
- TOTAL PROTEIN [2]: 6.02 G/DL
- URIC ACID [2]: 1.5 mg/dL
- ABSOLUTE BASOPHIL [3]: 0 CELLS/uL
- ABSOLUTE EOSINOPHIL [3]: 48.33 CELLS/uL
- ABSOLUTE LYMPHOCYTE [3]: 14035.67 CELLS/uL
- ABSOLUTE MONOCYTE [3]: 48.33 CELLS/uL
- ABSOLUTE SEGMENTED NEUTROPHIL [3]: 1667.67 CELLS/uL
- BASOPHIL [3]: 0%
- EOSINOPHIL [3]: 0.33%
- ERYTHROCYTE COUNT [3]: 5.31 x10E6/uL
- HEMATOCRIT [3]: 35.1%
- HEMOGLOBIN [3]: 13.77 G/DL
- LEUKOCYTE COUNT [3]: 15.8 x10E3/uL
- LYMPHOCYTE [3]: 88.67%
- MEAN CORPUSCULAR HEMOGLOBIN [3]: 25.93 pg
- MEAN CORPUSCULAR HEMOGLOBIN CONCENTRATION [3]: 39.23 G/DL
- MEAN CORPUSCULAR VOLUME [3]: 66.13 fL
- MONOCYTE [3]: 0.33%
- NEUTROPHIL [3]: 10.67%
- NUCLEATED RED BLOOD CELLS [3]: 0 /100WBC
- PLATELET COUNT [3]: 1211 x10E3/uL
- ALANINE AMINOTRANSFERASE [3]: 71.67 u/L
- ALBUMIN [3]: 4.43 G/DL
- ALKALINE PHOSPHATASE [3]: 396.67 u/L
- ASPARTATE AMINOTRANSFERASE [3]: 84.67 u/L
- BLOOD UREA NITROGEN [3]: 21.67 mg/dL
- CARBON DIOXIDE [3]: 28 mmol/L
- CHLORIDE [3]: 100.67 MEQ/L
- CHOLESTEROL [3]: 88.33 mg/dL
- CREATINE PHOSPHOKINASE [3]: 202.33 u/L
- CREATININE [3]: 0.15 mg/dL
- GLUCOSE [3]: 155.67 mg/dL
- LACTATE DEHYDROGENASE [3]: 202 u/L
- LIPASE [3]: 10.67 u/L
- PHOSPHORUS [3]: 11.13 mg/dL
- POTASSIUM [3]: 6.55 MEQ/L
- SODIUM [3]: 141.9 MEQ/L
- TOTAL BILIRUBIN [3]: 0.13 mg/dL
- TOTAL PROTEIN [3]: 6.27 G/DL
- URIC ACID [3]: 1.47 mg/dL
